Counter-ions that a name gives are not always drawn. Like-named read-outs stand apart in the source and are kept apart here.
Experiments:
[1] = Solubility in aqueous fluids (qualitative, no method described); assay type: physicochemical
[2] = Stability of the crystalline form (qualitative, no method described); assay type: physicochemical; details: applicant's statement
[3] = Dissolution rate (qualitative, no method described); assay type: physicochemical; details: with regard to bioavailability in pharmaceutical formulations
[4] = as reported in U.S. Patent 5,248,699, among Forms I-V; cited from earlier work

SMILES: CN[C@H]1CC[C@@H](c2ccc(Cl)c(Cl)c2)c2ccccc21 [polymorph T1, (1S-cis)-4-(3,4-dichlorophenyl)-1,2,3,4-tetrahydro-N-methyl-1-naphthalenamine]
- solubility in aqueous fluids ([1]; as compared with Form I sertraline hydrochloride): enhanced solubility in aqueous fluids
- stability [2]: acceptable stability

SMILES: CN[C@H]1CC[C@@H](c2ccc(Cl)c(Cl)c2)c2ccccc21 [sertraline hydrochloride Form I, (1S-cis)-4-(3,4-dichlorophenyl)-1,2,3,4-tetrahydro-N-methyl-1-naphthalenamine]
- solubility ([1]; prepared in applicant's laboratory according to Sysko et al., aqueous fluids): extremely insoluble
- stability [2]: stable as reported
- dissolution rate [3]: too slow to provide adequate bioavailability
- stability [4]: greatest stability

— patent publication EP0928784B1, “Sertraline polymorph having improved water solubility” (TORCAN CHEMICAL Ltd, priority 1997, dated 1999)
